Converted amounts (≈) assume the structure as drawn. Some results are limits rather than exact numbers.

For assay [1], the system named is HL60/S cells. In words: IC50 of cells treated with drug (drug sensitivity). The class given is cell-based. The note with it: Homo sapiens, HL-60, do not express P-glycoprotein, read-out: IC₅₀.
The test system of assay [2] is HL60/Adr cells. As to the kind of experiment: IC50 of cells treated with drug (drug sensitivity). Type of assay: cell-based. The note with it: Homo sapiens; HL60/Adr cells (resistant to doxorubicin); express P190, no P-glycoprotein; read-out: IC₅₀.

Turning to `COc1cccc2c1C(=O)c1c(O)c3c(c(O)c1C2=O)C[C@@](O)(C(=O)CO)C[C@@H]3O[C@H]1C[C@H](N)[C@H](O)[C@H](C)O1` [Adriamycin, Doxorubicin], the IC50 in assay [1] stood at 0.011 µg/mL (≈ 0.0202 µM); in assay [2], 2.2 µg/mL (≈ 4.05 µM).
Consider `COc1cc([C@@H]2c3cc4c(cc3[C@@H](O[C@@H]3O[C@@H]5CO[C@@H](C)O[C@H]5[C@H](O)[C@H]3O)[C@H]3COC(=O)[C@H]23)OCO4)cc(OC)c1O` [Etoposide], for which the results for the IC50 in assay [1] and in assay [2] were 0.39 µg/mL (≈ 0.663 µM) and more than 10 µg/mL, respectively.

Source of the values: EP0596725A2, “Drug resistance-conferring protein, antibodies reactive therewith and utilities thereof” (ELI LILLY AND COMPANY, priority 1992, dated 1994).
